Assay results reported in US20100076013A1, “Methods of Treatment” (Novartis AG, priority 2006, published 2010).
pEC50: −log10 of the molar value. Values belong to the compound of their own block, whether it stands above or below them.

What was measured:
NALM-1 = assay: CellTiter-Glo cell viability assay; type: cell-based; conditions: NALM-1, CML; 72 hours
Experimental: (§1) The EC50s were determined using CellTiter-Glo (Promega), a bioluminescent, cell viability assay measuring ATP levels in viable cells. Cells were plated in assay plates and incubated with a range of compound concentrations for 72 hours. Cells were lysed and ATP levels were determined using CellTiter-Glo reagent on a luminometer according to manufacturer's instructions. EC50 refers to the concentration of compound that inhibited 50% of cell growth.

NOMO-1 = assay: CellTiter-Glo cell viability assay; type: cell-based; conditions: Homo sapiens; NOMO-1, AML; 72 hours
Experimental: as §1

KARPAS-45 = assay: CellTiter-Glo cell viability assay; type: cell-based; conditions: KARPAS-45, T-ALL; 72 hours
Experimental: as §1

Kasumi-1 = assay: CellTiter-Glo cell viability assay; type: cell-based; conditions: Homo sapiens; Kasumi-1, AML; 72 hours
Experimental: as §1

Reh = assay: CellTiter-Glo cell viability assay; type: cell-based; conditions: Homo sapiens, B-ALL, 72 hours
Experimental: as §1

JK-1 = assay: CellTiter-Glo cell viability assay; type: cell-based; conditions: JK-1, CML; 72 hours
Experimental: as §1

L-428 = assay: CellTiter-Glo cell viability assay; type: cell-based; conditions: Homo sapiens; L-428, HL; 72 hours
Experimental: as §1

ML-2 = assay: CellTiter-Glo cell viability assay; type: cell-based; conditions: Homo sapiens; ML-2, AML; 72 hours
Experimental: as §1

EOL-1 = assay: CellTiter-Glo cell viability assay; type: cell-based; conditions: Homo sapiens, EOL1; EOL-1, AML; 72 hours
Experimental: as §1

NB-4 = assay: CellTiter-Glo cell viability assay; type: cell-based; conditions: Homo sapiens; NB-4, AML; 72 hours
Experimental: as §1

D1.1 = assay: CellTiter-Glo cell viability assay; type: cell-based; conditions: D1.1, T-ALL; 72 hours
Experimental: as §1

Karpas-299 = assay: CellTiter-Glo cell viability assay; type: cell-based; conditions: Homo sapiens; Karpas-299, ALCL; 72 hours
Experimental: as §1

PL-21 = assay: CellTiter-Glo cell viability assay; type: cell-based; conditions: PL-21, AML; 72 hours
Experimental: as §1

KE-37 = assay: CellTiter-Glo cell viability assay; type: cell-based; conditions: Homo sapiens; KE-37, T-ALL; 72 hours
Experimental: as §1

EM-2 = assay: CellTiter-Glo cell viability assay; type: cell-based; conditions: Homo sapiens; EM-2, CML; 72 hours
Experimental: as §1

MOLT-3 = assay: CellTiter-Glo cell viability assay; type: cell-based; conditions: Homo sapiens; MOLT-3, T-ALL; 72 hours
Experimental: as §1

CEM/C2 = assay: CellTiter-Glo cell viability assay; type: cell-based; conditions: Homo sapiens; CEM/C2, T-ALL; 72 hours
Experimental: as §1

HSB-2 = assay: CellTiter-Glo cell viability assay; type: cell-based; conditions: HSB2; HSB-2, T-ALL; 72 hours
Experimental: as §1

CCRF-HSB-2 = assay: CellTiter-Glo cell viability assay; type: cell-based; conditions: Homo sapiens; CCRF-HSB-2, T-ALL; 72 hours
Experimental: as §1

JURL-MK2 = assay: CellTiter-Glo cell viability assay; type: cell-based; conditions: JURL-MK2, CML; 72 hours
Experimental: as §1

EM-3 = assay: CellTiter-Glo cell viability assay; type: cell-based; conditions: EM-3, CML; 72 hours
Experimental: as §1

SR = assay: CellTiter-Glo cell viability assay; type: cell-based; conditions: Homo sapiens, LCIL, 72 hours
Experimental: as §1

RL = assay: CellTiter-Glo cell viability assay; type: cell-based; conditions: Homo sapiens, B-NHL, 72 hours
Experimental: as §1

KU812 = assay: CellTiter-Glo cell viability assay; type: cell-based; conditions: Homo sapiens; KU812, CML; 72 hours
Experimental: as §1

JURL-MK1 = assay: CellTiter-Glo cell viability assay; type: cell-based; conditions: JURL-MK1, CML; 72 hours
Experimental: as §1

OCI-AML3 = assay: CellTiter-Glo cell viability assay; type: cell-based; conditions: Homo sapiens, OCI-AML-3, 72 hours
Experimental: as §1

CEM/C1 = assay: CellTiter-Glo cell viability assay; type: cell-based; conditions: CEM/C1, T-ALL; 72 hours
Experimental: as §1

CCRF-CEM = assay: CellTiter-Glo cell viability assay; type: cell-based; conditions: Homo sapiens, T-ALL, 72 hours
Experimental: as §1

LAMA-84 = assay: CellTiter-Glo cell viability assay; type: cell-based; conditions: Homo sapiens; LAMA-84, CML; 72 hours
Experimental: as §1

MV-4-11 = assay: CellTiter-Glo cell viability assay; type: cell-based; conditions: Homo sapiens, MV4-11; MV-4-11, AML; 72 hours
Experimental: (§2) See Kelly et al. (2002). […] See Cools et al. (2004).
as §1

[1] = system: wild-type FLT3-expressing Ba/F3 cells; conditions: FIG. 3
Experimental: (§3) The IL-3-dependent murine hematopoietic cell line Ba/F3 are transduced with either FLT3-ITD or FLT3-D835Y-containing MSCV retroviruses harboring a neomycin selectable marker, and selected for resistance to neomycin. See Kelly et al. (2002). FLT3-ITD transduced cells are selected for growth in G418 (1 mg/mL). PKC412-resistant Ba/F3 cell lines, which express FLT3-ITD harboring a mutation in the ATP-binding pocket (F691L, A627T, G697R, N676D), are developed as described previously. See Cools et al. (2004). The human AML-derived, FLT3-ITD-expressing cell line, MV4; 11 [see Quentmeier et al. (2003)], is provided by Dr. Scott Armstrong, Dana Farber Cancer Institute, Boston, Mass. The human AML-derived, FLT3-ITD-expressing cell line, MOLM-13, is modified to express luciferase and provided as MOLM13-luc+ by Dr. Andrew Kung, Dana Farber Cancer Institute, Boston, Mass. All cell lines are cultured with 5% CO2 at 37° C., at a concentration of 2×10^5 to 5×10^5 in RPMI (Mediatech, Inc., Herndon, Va.) with 10% fetal calf serum and supplemented with 1% glutamine. Parental Ba/F3 cells expressing wild-type FLT3 are similarly cultured with 15% WEHI-conditioned medium as a source of IL-3. All transfected cell lines are cultured in media supplemented with 1 mg/mL G418.
(§4) N-[1-cyclohexyl-2-oxo-2-(6-phenethyl-octahydro-pyrrolo[2,3-c]pyridin-1-yl-ethyl]-2-methylamino-propionamide is synthesized by Novartis Pharma AG, Basel, Switzerland, and dissolved in DMSO to make 10 mM stock solutions. Serial dilutions are then made, also in DMSO, to obtain final dilutions for cellular assays.
(§5) The trypan blue exclusion assay has been previously described [see Weisberg et al. (2002)], and is used to determine proliferation of cells cultured in the presence and absence of LBW242. Cell viability is reported as percentage of control (untreated) cells. Error bars represent the standard error of the mean for each data point. Apoptosis of drug-treated cells is measured using the Annexin-V-Fluos Staining Kit (Boehringer Mannheim, Indianapolis, Ind.), as previously described. See Weisberg et al. (2002).

FLT3-ITD-Ba/F3 [2] = conditions: PKC412-sensitive line FLT3-ITD-Ba/F3; FIGS. 1-2
Experimental: as §3, §4, §5

[3] = system: FLT3-ITD-Ba/F3 cells expressing firefly luciferase; assay: Mouse model of acute leukemia, tumor burden by bioluminescence imaging; type: in vivo, NCr nude mice; conditions: for Student t-test p of bioluminescence (tumor burden), vehicle versus compound alone: 50 mg/kg oral gavage, NCr nude mice
Experimental: FIG. 4 illustrates NCR nude mice injected with 800,000 Ba/F3-FLT3-ITD-luc+ cells via IV tail vein, and then treated for up to 10 days by oral gavage with vehicle (NMP+PEG300), LBW242 (50 mg/kg).

[4] = system: Mutant FLT3-expressing cells
Experimental: as §3

G697R-Ba/F3 [5] = assay: Induction of apoptosis (Annexin-V staining) and caspase activity; type: cell-based, murine; conditions: 1 μM, following 2 days and 3 days, respectively
Source text: as §2
(§6) See Weisberg et al. (2002).

G697R-Ba/F3 [6] = assay: Trypan blue exclusion proliferation assay; type: cell-based, murine; conditions: PKC412-resistant line G697R-Ba/F3; FIGS. 1-2
Source text: as §2, §6

D835Y-Ba/F3 cells = assay: Trypan blue exclusion proliferation assay; type: cell-based, murine; conditions: PKC412-sensitive line D835Y-Ba/F3; three-day treatment, FIG. 3
Source text: as §2, §6

FLT3-ITD-Ba/F3 [7] = conditions: 1 μM, following 2 days and 3 days, respectively
Experimental: as §3, with “Parental Ba/F3 cells expressing wild-type FLT3 are similarly cultured with 15% WEHI-conditioned medium as a source of IL-3. All transfected cell lines are cultured in media supplemented with 1 mg/mL G418.” left out
The trypan blue exclusion assay has been previously described [see Weisberg et al. (2002)], and is used to determine proliferation of cells cultured in the presence and absence of LBW242. […] Apoptosis of drug-treated cells is measured using the Annexin-V-Fluos Staining Kit (Boehringer Mannheim, Indianapolis, Ind.), as previously described. […]

[8] = system: PKC412-sensitive and resistant mutant FLT3-expressing cells
Experimental: as §5

[9] = system: mutant FLT3-expressing cells; conditions: annexin-pi staining and caspase assays; effective concentrations in the micromolar range
Experimental: as §5

- pEC50 (KARPAS-45): 4.98
- pEC50 (Karpas-299): 4.97
- pEC50 (MOLT-3): 4.99
- pEC50 (CCRF-HSB-2): 5.20
- pEC50 (OCI-AML3): 5.39
- pEC50 (CCRF-CEM): 6.17
- pEC50 (MV-4-11): 4.85
Compound: CN[C@@H](C)C(=O)N[C@H](C(=O)N1CCC[C@H]1c1nc(C(=O)c2ccc(F)cc2)cs1)C1CCCCC1 [(S)—N—((S)-1-Cyclohexyl-2-{(S)-2-[4-(4-fluoro-benzoyl)-thiazol-2-yl]-pyrrolidin-1-yl}-2-oxo-ethyl)-2-methylamino-propionamide]
- pEC50 (NALM-1): 5.45
- pEC50 (NOMO-1): 5.39
- pEC50 (Kasumi-1): 5.06
- pEC50 (Reh): 7.10
- pEC50 (JK-1): 5.46
- pEC50 (L-428): 5.14
- pEC50 (ML-2): 7.82
- pEC50 (EOL-1): 5.78
- pEC50 (NB-4): 7.84
- pEC50 (D1.1): 5.13
- pEC50 (PL-21): 5.45
- pEC50 (KE-37): 5.29
- pEC50 (EM-2): 6.16
- pEC50 (CEM/C2): 5.42
- pEC50 (HSB-2): 6.40
- pEC50 (JURL-MK2): 4.89
- pEC50 (EM-3): 4.86
- pEC50 (SR): 4.93
- pEC50 (RL): 5.01
- pEC50 (KU812): 5.71
- pEC50 (JURL-MK1): 4.93
- pEC50 (CEM/C1): 5.34
- pEC50 (LAMA-84): 6.69

Compound: CNC(C)C(=O)NC(C(=O)N1CCC2CCN(CCc3ccccc3)CC21)C1CCCCC1 (centres unmarked) [N-[1-cyclohexyl-2-oxo-2-(6-phenethyl-octahydro-pyrrolo[2,3-c]pyridin-1-yl-ethyl]-2-methylamino-propionamide]
- concentrations that led to death of the cells [1]: > 1 µM
- inhibitory effects on cell growth ([1]; concentrations ≦1 μM): no inhibitory effects
- doses at which activity is displayed against the cells in culture (FLT3-ITD-Ba/F3 [2]): ≥ 1 µM
- Student t-test p of bioluminescence (tumor burden), vehicle versus compound alone ([3]; day 5 post-IV injection): ≤ 0.0773
- Student t-test p of bioluminescence (tumor burden), vehicle versus compound alone ([3]; day 7 post-IV injection): ≤ 0.05625
- tolerability of doses effective against mutant FLT3 ([3]; in vivo): well-tolerated
- rescue of treated cells from cytotoxic effects by WEHI (source of IL-3) [4]: did not rescue
- induction of apoptosis and caspase activity (G697R-Ba/F3 [5]): found
- doses at which activity is displayed against the cells in culture (G697R-Ba/F3 [6]): ≥ 1 µM
- doses at which activity is displayed against the cells in culture (D835Y-Ba/F3 cells): ≥ 1 µM
- induction of apoptosis and caspase activity (FLT3-ITD-Ba/F3 [7]): found
- inhibition of cells in vitro [8]: inhibits
- induction of apoptosis [9]: modestly observed

Compound: CO[C@@H]1[C@H](N(C)C(=O)c2ccccc2)C[C@H]2O[C@]1(C)n1c3ccccc3c3c4c(c5c6ccccc6n2c5c31)C(=O)NC4 [PKC412, reference compound]
- rescue of treated cells from cytotoxic effects by WEHI (source of IL-3) [4]: fully rescued
